Measurements published in patent US11959486B2, “Stable liquid formulation of AMG 416 (etelcalcetide)” (AMGEN INC., priority 2013, dated 2024).

Assay: Stability of liquid formulations over range of pH 2-6 in succinate-buffered saline, HPLC purity, with extrapolation (Example 3)
Format: physicochemical
Procedure: The solution was divided evenly into five 4 mL portions which were adjusted to pH 2, 3, 4, 5 and 6, respectively, with NaOH and HCl as needed. Three 1 mL solutions were aliquoted from each portion and incubated at 2-8° C., room temperature (about 25° C.), and 40° C., respectively. The remaining 1 mL solution in each aliquot was diluted with pH 4.5 succinate buffered saline to 4 mL of 2.5 mg/mL peptide concentration, pH adjusted, and incubated in the same manner.
Based on the extent of degradation at 28 days, predictions of the extent of degradation were calculated as described, supra. Bolded values indicate conditions which show less than 10% degradation, and which may be preferred for a liquid formulation. Conditions where the sample at 28 days show slightly higher purity than the initial data are presented as 0.0% for all projections.
At each pH value, the degradation data for each of three temperatures is compared to data from the other two temperatures to calculate the observed acceleration. The predicted acceleration is by simple application of Arrhenius principles as described above.

[1] = 2.5 mg/mL, pH 2, from 2-8° C. data
[2] = 2.5 mg/mL, pH 2, from 40° C. data
[3] = 2.5 mg/mL, pH 3, from 2-8° C. data
[4] = 2.5 mg/mL, pH 3, from 40° C. data
[5] = 2.5 mg/mL, pH 4, from 2-8° C. data
[6] = 2.5 mg/mL, pH 4, from 40° C. data
[7] = 2.5 mg/mL, pH 5, from 2-8° C. data
[8] = 2.5 mg/mL, pH 5, from 40° C. data
[9] = 2.5 mg/mL, pH 6, from 2-8° C. data
[10] = 2.5 mg/mL, pH 6, from 40° C. data
[11] = 10 mg/mL, pH 2, from 2-8° C. data
[12] = 10 mg/mL, pH 2, from 40° C. data
[13] = 10 mg/mL, pH 3, from 2-8° C. data
[14] = 10 mg/mL, pH 3, from 40° C. data
[15] = 10 mg/mL, pH 4, from 2-8° C. data
[16] = 10 mg/mL, pH 4, from 40° C. data
[17] = 10 mg/mL, pH 5, from 2-8° C. data
[18] = 10 mg/mL, pH 5, from 40° C. data
[19] = 10 mg/mL, pH 6, from 2-8° C. data
[20] = 10 mg/mL, pH 6, from 40° C. data

CC(=O)N[C@H](CSSC[C@H](N)C(=O)O)C(=O)N[C@H](C)C(=O)N[C@H](CCCNC(=N)N)C(=O)N[C@H](CCCNC(=N)N)C(=O)N[C@H](CCCNC(=N)N)C(=O)N[C@H](C)C(=O)N[C@H](CCCNC(=N)N)C(N)=O [AMG 416, N-acetyl-D-cysteinyl-D-alanyl-D-arginyl-D-arginyl-D-arginyl-D-alanyl-D-arginamide disulfide with L-cysteine]
Observed degradation at 28 days (2.5 mg/mL, pH 2, 2-8° C.): 0.0% | Observed degradation at 28 days (2.5 mg/mL, pH 2, 40° C.): 9.1% | Observed degradation at 28 days (2.5 mg/mL, pH 2, RT): 0.6% | Calculated Degradation 1 y 2-8° C. [1]: 0.0% | Calculated Degradation 1 y RT [1]: 0.0% | Calculated Degradation 2 y 2-8° C. [1]: 0.0% | Calculated Degradation 2 y RT [1]: 0.0% | Calculated Degradation 1 y [2]: 116.5% | Calculated Degradation 1 y RT [2]: 29.1% | Calculated Degradation 2 y 2-8° C. [2]: 14.6% | Calculated Degradation 2 y RT [2]: 58.3% | Calculated Degradation 1 y (2.5 mg/mL, pH 2, from RT data): 7.9% | Calculated Degradation 1 y RT (2.5 mg/mL, pH 2, from RT data): 7.9% | Calculated Degradation 2 y 2-8° C. (2.5 mg/mL, pH 2, from RT data): 4.0% | Calculated Degradation 2 y RT (2.5 mg/mL, pH 2, from RT data): 15.9% | Observed degradation at 28 days (2.5 mg/mL, pH 3, 2-8° C.): 0.0% | Observed degradation at 28 days (2.5 mg/mL, pH 3, 40° C.): 1.8% | Observed degradation at 28 days (2.5 mg/mL, pH 3, RT): 0.0% | Calculated Degradation 1 y 2-8° C. [3]: 0.0% | Calculated Degradation 1 y RT [3]: 0.0% | Calculated Degradation 2 y 2-8° C. [3]: 0.0% | Calculated Degradation 2 y RT [3]: 0.0% | Calculated Degradation 1 y [4]: 22.5% | Calculated Degradation 1 y RT [4]: 5.6% | Calculated Degradation 2 y 2-8° C. [4]: 2.8% | Calculated Degradation 2 y RT [4]: 11.3% | Calculated Degradation 1 y (2.5 mg/mL, pH 3, from RT data): 0.0% | Calculated Degradation 1 y RT (2.5 mg/mL, pH 3, from RT data): 0.0% | Calculated Degradation 2 y 2-8° C. (2.5 mg/mL, pH 3, from RT data): 0.0% | Calculated Degradation 2 y RT (2.5 mg/mL, pH 3, from RT data): 0.0% | Observed degradation at 28 days (2.5 mg/mL, pH 4, 2-8° C.): −0.1% | Observed degradation at 28 days (2.5 mg/mL, pH 4, 40° C.): 6.9% | Observed degradation at 28 days (2.5 mg/mL, pH 4, RT): 0.3% | Calculated Degradation 1 y 2-8° C. [5]: 0.0% | Calculated Degradation 1 y RT [5]: 0.0% | Calculated Degradation 2 y 2-8° C. [5]: 0.0% | Calculated Degradation 2 y RT [5]: 0.0% | Calculated Degradation 1 y [6]: 88.7% | Calculated Degradation 1 y RT [6]: 22.2% | Calculated Degradation 2 y 2-8° C. [6]: 11.1% | Calculated Degradation 2 y RT [6]: 44.3% | Calculated Degradation 1 y (2.5 mg/mL, pH 4, from RT data): 3.6% | Calculated Degradation 1 y RT (2.5 mg/mL, pH 4, from RT data): 3.6% | Calculated Degradation 2 y 2-8° C. (2.5 mg/mL, pH 4, from RT data): 1.8% | Calculated Degradation 2 y RT (2.5 mg/mL, pH 4, from RT data): 7.2% | Observed degradation at 28 days (2.5 mg/mL, pH 5, 2-8° C.): 0.2% | Observed degradation at 28 days (2.5 mg/mL, pH 5, 40° C.): 26.1% | Observed degradation at 28 days (2.5 mg/mL, pH 5, RT): 2.9% | Calculated Degradation 1 y 2-8° C. [7]: 2.9% | Calculated Degradation 1 y RT [7]: 11.8% | Calculated Degradation 2 y 2-8° C. [7]: 5.9% | Calculated Degradation 2 y RT [7]: 23.5% | Calculated Degradation 1 y [8]: 333.6% | Calculated Degradation 1 y RT [8]: 83.4% | Calculated Degradation 2 y 2-8° C. [8]: 41.7% | Calculated Degradation 2 y RT [8]: 166.8% | Calculated Degradation 1 y (2.5 mg/mL, pH 5, from RT data): 37.7% | Calculated Degradation 1 y RT (2.5 mg/mL, pH 5, from RT data): 37.7% | Calculated Degradation 2 y 2-8° C. (2.5 mg/mL, pH 5, from RT data): 18.9% | Calculated Degradation 2 y RT (2.5 mg/mL, pH 5, from RT data): 75.5% | Observed degradation at 28 days (2.5 mg/mL, pH 6, 2-8° C.): 0.8% | Observed degradation at 28 days (2.5 mg/mL, pH 6, 40° C.): 45.0% | Observed degradation at 28 days (2.5 mg/mL, pH 6, RT): 18.1% | Calculated Degradation 1 y 2-8° C. [9]: 10.7% | Calculated Degradation 1 y RT [9]: 43.0% | Calculated Degradation 2 y 2-8° C. [9]: 21.5% | Calculated Degradation 2 y RT [9]: 86.0% | Calculated Degradation 1 y [10]: 575.7% | Calculated Degradation 1 y RT [10]: 143.9% | Calculated Degradation 2 y 2-8° C. [10]: 72.0% | Calculated Degradation 2 y RT [10]: 287.8% | Calculated Degradation 1 y (2.5 mg/mL, pH 6, from RT data): 231.0% | Calculated Degradation 1 y RT (2.5 mg/mL, pH 6, from RT data): 231.0% | Calculated Degradation 2 y 2-8° C. (2.5 mg/mL, pH 6, from RT data): 115.5% | Calculated Degradation 2 y RT (2.5 mg/mL, pH 6, from RT data): 462.1% | predicted degradation over 2 years at RT (2.5 mg/mL, pH range 2-4, extrapolated from the 2-8° C. data): less than 10% | Observed degradation at 28 days (10 mg/mL, pH 2, 2-8° C.): 0.3% | Observed degradation at 28 days (10 mg/mL, pH 2, 40° C.): 5.3% | Observed degradation at 28 days (10 mg/mL, pH 2, RT): 0.6% | Calculated Degradation at 1 y RT [11]: 15.4% | Calculated Degradation at 2 y 5° C. [11]: 7.7% | Calculated Degradation at 2 y RT [11]: 30.7% | Calculated Degradation at 360 d [11]: 3.8% | Calculated Degradation at 1 y RT [12]: 17.1% | Calculated Degradation at 2 y 5° C. [12]: 8.6% | Calculated Degradation at 2 y RT [12]: 34.2% | Calculated Degradation at 360 d [12]: 68.4% | Calculated Degradation at 1 y RT (10 mg/mL, pH 2, from RT data): 8.1% | Calculated Degradation at 2 y 5° C. (10 mg/mL, pH 2, from RT data): 4.0% | Calculated Degradation at 2 y RT (10 mg/mL, pH 2, from RT data): 16.1% | Calculated Degradation at 360 d (10 mg/mL, pH 2, from RT data): 8.1% | Observed degradation at 28 days (10 mg/mL, pH 3, 2-8° C.): −0.2% | Observed degradation at 28 days (10 mg/mL, pH 3, 40° C.): 1.1% | Observed degradation at 28 days (10 mg/mL, pH 3, RT): 0.2% | Calculated Degradation at 1 y RT [13]: 0.0% | Calculated Degradation at 2 y 5° C. [13]: 0.0% | Calculated Degradation at 2 y RT [13]: 0.0% | Calculated Degradation at 360 d [13]: 0.0% | Calculated Degradation at 1 y RT [14]: 3.5% | Calculated Degradation at 2 y 5° C. [14]: 1.8% | Calculated Degradation at 2 y RT [14]: 7.0% | Calculated Degradation at 360 d [14]: 14.1% | Calculated Degradation at 1 y RT (10 mg/mL, pH 3, from RT data): 2.6% | Calculated Degradation at 2 y 5° C. (10 mg/mL, pH 3, from RT data): 1.3% | Calculated Degradation at 2 y RT (10 mg/mL, pH 3, from RT data): 5.1% | Calculated Degradation at 360 d (10 mg/mL, pH 3, from RT data): 2.6% | Observed degradation at 28 days (10 mg/mL, pH 4, 2-8° C.): −0.1% | Observed degradation at 28 days (10 mg/mL, pH 4, 40° C.): 14.3% | Observed degradation at 28 days (10 mg/mL, pH 4, RT): 0.7% | Calculated Degradation at 1 y RT [15]: 0.0% | Calculated Degradation at 2 y 5° C. [15]: 0.0% | Calculated Degradation at 2 y RT [15]: 0.0% | Calculated Degradation at 360 d [15]: 0.0% | Calculated Degradation at 1 y RT [16]: 45.8% | Calculated Degradation at 2 y 5° C. [16]: 22.9% | Calculated Degradation at 2 y RT [16]: 91.7% | Calculated Degradation at 360 d [16]: >100% | Calculated Degradation at 1 y RT (10 mg/mL, pH 4, from RT data): 8.6% | Calculated Degradation at 2 y 5° C. (10 mg/mL, pH 4, from RT data): 4.3% | Calculated Degradation at 2 y RT (10 mg/mL, pH 4, from RT data): 17.1% | Calculated Degradation at 360 d (10 mg/mL, pH 4, from RT data): 8.6% | Observed degradation at 28 days (10 mg/mL, pH 5, 2-8° C.): 0.3% | Observed degradation at 28 days (10 mg/mL, pH 5, 40° C.): 34.9% | Observed degradation at 28 days (10 mg/mL, pH 5, RT): 5.6% | Calculated Degradation at 1 y RT [17]: 13.8% | Calculated Degradation at 2 y 5° C. [17]: 6.9% | Calculated Degradation at 2 y RT [17]: 27.6% | Calculated Degradation at 360 d [17]: 3.5% | Calculated Degradation at 1 y RT [18]: >100% | Calculated Degradation at 2 y 5° C. [18]: 55.9% | Calculated Degradation at 2 y RT [18]: >100% | Calculated Degradation at 360 d [18]: >100% | Calculated Degradation at 1 y RT (10 mg/mL, pH 5, from RT data): 71.4% | Calculated Degradation at 2 y 5° C. (10 mg/mL, pH 5, from RT data): 35.7% | Calculated Degradation at 2 y RT (10 mg/mL, pH 5, from RT data): >100% | Calculated Degradation at 360 d (10 mg/mL, pH 5, from RT data): 71.4% | Observed degradation at 28 days (10 mg/mL, pH 6, 2-8° C.): 1.9% | Observed degradation at 28 days (10 mg/mL, pH 6, 40° C.): 45.1% | Observed degradation at 28 days (10 mg/mL, pH 6, RT): 26.9% | Calculated Degradation at 1 y RT [19]: 95.7% | Calculated Degradation at 2 y 5° C. [19]: 47.8% | Calculated Degradation at 2 y RT [19]: >100% | Calculated Degradation at 360 d [19]: 23.9% | Calculated Degradation at 1 y RT [20]: >100% | Calculated Degradation at 2 y 5° C. [20]: 72.2% | Calculated Degradation at 2 y RT [20]: >100% | Calculated Degradation at 360 d [20]: >100% | Calculated Degradation at 1 y RT (10 mg/mL, pH 6, from RT data): >100% | Calculated Degradation at 2 y 5° C. (10 mg/mL, pH 6, from RT data): >100% | Calculated Degradation at 2 y RT (10 mg/mL, pH 6, from RT data): >100% | Calculated Degradation at 360 d (10 mg/mL, pH 6, from RT data): >100% | extrapolated degradation after 2 years at room temperature (2.5 or 10 mg/mL solutions at pH 3): less than 10% | pH of least degradation (28 day point, 10 and 2.5 mg/mL): approximately 3.0
